From US20080269279A1, “Substituted furo[2,3-B] pyridine derivatives as cannabinoid-1 receptor modulators” (priority 2007, published 2008)
pEC50, pIC50: −log10 of the molar value.

Key:
[1] = biological target: T1, recombinant human CB1 receptor (Homo sapiens, UniProt P21554); assay: Cannabinoid Receptor-1 (CB1) Binding Assay ([3H]CP-55940 displacement); conditions: recombinant human CB1 receptor expressed in CHO cells, 0.6 nM [3H]CP-55940; read-out: CB1 binding IC50
T1 construct: expressed in transfected cells
Method: Binding affinity determination is based on recombinant human CB1 receptor expressed in Chinese Hamster Ovary (CHO) cells (Felder et al, Mol. Pharmacol. 48: 443-450, 1995). Total assay volume is 250 μl (240 μl CB1 receptor membrane solution plus 5 μl test compound solution plus 5 μl [3H]CP-55940 solution). Final concentration of [3H]CP-55940 is 0.6 nM. Binding buffer contains 50 mM Tris-HCl, pH 7.4, 2.5 mM EDTA, 5 mM MgCl2, 0.5 mg/mL fatty acid free bovine serum albumin and protease inhibitors (Cat#P8340, from Sigma). To initiate the binding reaction, 5 μl of radioligand solution is added, the mixture is incubated with gentle shaking on a shaker for 1.5 h at 30° C. The binding is terminated by using 96-well harvester and filtering through GF/C filter presoaked in 0.05% polyethylenimine. The bound radiolabel is quantitated using scintillation counter. Apparent binding affinities for various compounds are calculated from IC50 values (DeBlasi et al., Trends Pharmacol Sci 10: 227-229, 1989).

[2] = biological target: T1, recombinant human CB1 receptor; assay: Cannabinoid Receptor-1 (CB1) Functional Activity Assay (intracellular cAMP in CB1-CHO cells); assay type: cell-based; conditions: for pEC50: CB1-CHO cells, forskolin-stimulated cAMP, read-out: EC50 in the CB1 functional activity assay; for functional mode at CB1 receptor: CB1 functional activity assay, cAMP
Method: The functional activation of CB1 receptor is based on recombinant human CB1 receptor expressed in CHO cells (Felder et al, Mol. Pharmacol. 48: 443-450, 1995). To determine the agonist activity or inverse agonist activity of any test compound, 50 ul of CB1-CHO cell suspension are mixed with test compound and 70 ul assay buffer containing 0.34 mM 3-isobutyl-1-methylxanthine and 5.1 uM of forskolin in 96-well plates. The assay buffer is comprised of Earle's Balanced Salt Solution supplemented with 5 mM MgCl2 1 mM glutamine, 10 mM HEPES, and 1 mg/mL bovine serum albumin. The mixture is incubated at room temperature for 30 minutes, and terminated by adding 30 ul/well of 0.5M HCl. The total intracellular cAMP level is quantitated using the New England Nuclear Flashplate and cAMP radioimmunoassay kit.
To determine the antagonist activity of test compound, the reaction mixture also contains 0.5 nM of the agonist CP55940 (or 50 nM of methanandamide), and the reversal of the CP55940 (or methanandamide) effect is quantitated with increasing concentration of the test compound. Intracellular cAMP is determined as described above. An IC50 value for the test compound is calculated from the titration curve.

[3] = tested on: human GABA α1β3β2 receptors; assay: GABAa, 3H-muscimol binding assay; conditions: for % GABA Example: activity at 10 μM as percentage of activity of control compound P18 at 10 μM (increase of 3H-muscimol binding); for % GABA Parent: parent compound without R^4 heteroaryl, activity at 10 μM as percentage of activity of control compound P18 at 10 μM
Method: Membranes from recombinant Ltk cells expressing human GABA α1β3β2 receptors were suspended in an ice-cold solution of 100 mM KCl, 10 mM KH2PO4, adjusted to pH=7.4 with 1 M KOH. Tritiated muscimol (PerkinElmer, Wellesley, Mass.) at a concentration of 2 nM, and serial five-fold dilutions of test compounds at 10 μM, 2.0 μM, 400 nM, 80 nM, 16 nM, 3.2 nM, 0.64 nM and 0.13 nM were mixed in 96-well plates containing 200 μL of membrane suspension. Cold muscimol and compound P18 were used as negative and positive controls respectively. The assay mixture was incubated at 4° C. for 2 hours, then harvested on GF/C filter plates and washed with ice-cold 50 mM Tris-Ci buffer. The filter plates were dried and counted in a Wallac MicroBeta® Trilux detector (Model 1450-030; PerkinElmer, Wellesley, Mass.), and the data were downloaded and analyzed using Prism 3.0. The activity of compound P18 at 10 μM was used as reference for the test compounds, and it was expressed as increasing ^3H-muscimol binding by 100%, whereas cold muscimol at 2 μM antagonized ^3H-muscimol binding by 100%. The tested compound's activity at 10 μM was expressed as a percentage of compound P18's activity at 10 μM.
As a reference, the parent compound (the compound not substituted with a R^4 heteroaryl, such as pyrazole or 1,2,4-oxadiazole, as indicated below) is also shown with its Gamma Amino Butyric Acid (GABA) Receptor activity. […] As a result, the compounds of the present invention in which R^4 is a heteroaryl, such as pyrazole or 1,2,4-oxadiazole, have the unexpected benefits of minimizing off target activity at the GABA receptor.
Note: % GABA is defined as the GABA activity of the indicated compound expressed as a percentage of the activity of control compound P18. NA=data not available.

T1 sequence (P21554 whole entry): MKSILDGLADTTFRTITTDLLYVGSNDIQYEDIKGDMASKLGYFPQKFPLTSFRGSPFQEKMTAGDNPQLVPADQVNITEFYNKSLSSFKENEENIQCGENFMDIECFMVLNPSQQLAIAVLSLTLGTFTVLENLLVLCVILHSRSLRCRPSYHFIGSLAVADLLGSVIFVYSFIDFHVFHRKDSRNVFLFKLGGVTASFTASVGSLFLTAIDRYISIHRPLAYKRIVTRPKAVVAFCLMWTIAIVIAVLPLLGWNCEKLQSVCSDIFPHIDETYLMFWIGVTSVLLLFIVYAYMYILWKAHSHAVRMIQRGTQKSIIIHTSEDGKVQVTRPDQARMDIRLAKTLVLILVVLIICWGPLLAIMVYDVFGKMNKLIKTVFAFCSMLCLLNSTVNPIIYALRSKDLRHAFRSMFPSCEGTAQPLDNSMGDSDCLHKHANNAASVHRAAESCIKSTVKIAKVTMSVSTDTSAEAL

`Cc1c(S(=O)(=O)C(C)(C)C)oc2nc(-c3ccc(-c4cn[nH]c4)cc3Cl)c(-c3ccc(Cl)cc3)cc12` [Example 11, 2-(Tert-butylsulfonyl)-5-(4-chlorophenyl)-6-[2-chloro-4-(1H-pyrazol-4-yl)phenyl]-3-methylfuro[2,3-b]pyridine] was tested, and the pIC50 [1] was 9.00, the pEC50 [2] was > 7.70 and the “functional mode at CB1 receptor” value [2] was “functional inverse agonists”. For the same molecule, the “% GABA Example” value [3] was 7%.

`CC(=O)Nc1c(C(=O)C(C)C)oc2nc(-c3ccc(-c4cc[nH]n4)cc3Cl)c(-c3ccc(Cl)cc3)cc12` [Example 2, N-{5-(4-Chlorophenyl)-6-[2-chloro-4-(1H-pyrazol-3-yl)phenyl]-2-isobutyrylfuro[2,3-b]pyridin-3-yl}acetamide] was tested, and the pIC50 [1] was 8.22, the pEC50 [2] was > 7.70 and the “functional mode at CB1 receptor” value [2] was “functional inverse agonists”. The “% GABA Example” value [3] was 17%.

`CCC(=O)c1oc2nc(-c3ccc(-c4cn[nH]c4)cc3Cl)c(-c3ccc(Cl)cc3)cc2c1NC(C)=O` [Example 5, N-{5-(4-Chlorophenyl)-6-[2-chloro-4-(1H-pyrazol-4-yl)phenyl]-2-propionylfuro[2,3-b]pyridin-3-yl}acetamide] was tested, and the “% GABA Example” value [3] was 11%.

`CC(C)(C)C(=O)c1oc2nc(-c3ccc(-c4cc[nH]n4)cc3Cl)c(-c3ccc(Cl)cc3)cc2c1NC(=O)CO` [Example 27, N-[5-(4-Chlorophenyl)-6-[2-chloro-4-(3H-pyrazol-5-yl)phenyl]-2-(2,2-dimethyl-propanoyl)furo[2,3-b]pyridin-3-yl]-2-hydroxyacetamide] was tested, and the “% GABA Example” value [3] was 29%.

With `CC(C)C(=O)c1oc2nc(-c3ccc(-c4cc[nH]n4)cc3Cl)c(-c3ccc(Cl)cc3)cc2c1N` [Example 22, 1-{3-Amino-5-(4-chlorophenyl)-6-[2-chloro-4-(1H-pyrazol-3-yl)phenyl]furo-[2,3-b]pyridin-2-yl}-2-methylpropan-1-one] the “% GABA Example” value [3] was 18%.

With `CC(C)C(=O)c1oc2nc(-c3ccc(-c4cc[nH]n4)cc3Cl)c(-c3ccc(Cl)cc3)cc2c1N1CCCC1=O` [Example 28, 1-{5-(4-Chlorophenyl)-6-[2-chloro-4-(1H-pyrazol-3-yl)phenyl]-2-isobutyrylfuro[2,3-b]pyridin-3-yl}pyrrolidin-2-one] the “% GABA Example” value [3] was 16%.

`Cc1c(C(=O)C(C)(C)C)oc2nc(-c3ccc(-c4cn[nH]c4)cc3Cl)c(-c3ccc(Cl)cc3)cc12` [Example 10, 1-{5-(4-Chlorophenyl)-6-[2-chloro-4-(1H-pyrazol-4-yl)phenyl]-3-methylfuro[2,3-b]pyridin-2-yl}-2,2-dimethylpropan-1-one] was tested, and the “% GABA Example” value [3] was 9%.

For `Cc1c(C(=O)C(C)(C)C)oc2nc(-c3ccc(-c4ncon4)cc3Cl)c(-c3ccc(Cl)cc3)cc12` [Example 42, 1-[6-[2-Chloro-4-(1,2,4-oxadiazol-3-yl)phenyl]-5-(4-chlorophenyl)-3-methylfuro[2,3-b]pyridin-2-yl]-2,2-dimethylpropan-1-one], the “% GABA Example” value [3] was 5%.

`Cc1n[nH]cc1-c1ccc(-c2nc3oc(C(=O)C(C)(C)C)c(C)c3cc2-c2ccc(Cl)cc2)c(Cl)c1` [Example 36, 1-[6-[2-Chloro-4-(3-methyl-1H-pyrazol-4-yl)phenyl]-5-(4-chlorophenyl)-3-methylfuro[2,3-b]pyridin-2-yl]-2,2-dimethylpropan-1-one] was tested, and the “% GABA Example” value [3] was 16%.

With `CC(=O)Nc1c(C(=O)C(C)(C)C)oc2nc(-c3ccccc3Cl)c(-c3ccc(Cl)cc3)cc12` [Example P3, reference compound] the “% GABA Parent” value [3] was 67%.

In the case of `CCC(=O)c1oc2nc(-c3ccccc3Cl)c(-c3ccc(Cl)cc3)cc2c1C` [Example P15, reference compound], the “% GABA Parent” value [3] was 50%.

For `C[C@H](O)C(=O)Nc1c(C(=O)C(C)(C)C)oc2nc(-c3ccc(-c4cn[nH]c4)cc3Cl)c(-c3ccc(Cl)cc3)cc12` [Example 14, (2S)-N-[5-(4-Chlorophenyl)-6-[2-chloro-4-(1H-pyrazol-4-yl)phenyl]-2-(2,2-dimethylpropanoyl)furo[2,3-b]pyridin-3-yl]-2-hydroxypropanamide], the “% GABA Example” value [3] was 13%.

In the case of `Cc1c(C(=O)C(C)(C)O)oc2nc(-c3ccc(-c4cc[nH]n4)cc3Cl)c(-c3ccc(Cl)cc3)cc12` [Example 23, 1-{5-(4-Chlorophenyl)-6-[2-chloro-4-(1H-pyrazol-3-yl)phenyl]-3-methylfuro[2,3-b]pyridin-2-yl}-2-hydroxy-2-methylpropan-1-one], the “% GABA Example” value [3] was 24%.

With `CCC(=O)c1oc2nc(-c3ccc(-c4cn[nH]c4)cc3Cl)c(-c3ccc(Cl)cc3)cc2c1NC(=O)C(C)(C)O` [Example 13, N-{5-(4-Chlorophenyl)-6-[2-chloro-4-(1H-pyrazol-4-yl)phenyl]-2-propionylfuro[2,3-b]pyridin-3-yl}-2-hydroxy-2-methylpropanamide] the “% GABA Example” value [3] was 15%.

For `Cc1n[nH]cc1-c1ccc(-c2nc3oc(C(=O)C(C)C)c(N4CCCC4=O)c3cc2-c2ccc(Cl)cc2)c(Cl)c1` [Example 39, 1-[6-[2-Chloro-4-(3-methyl-1H-pyrazol-4-yl)phenyl]-5-(4-chlorophenyl)-2-isobutyrylfuro[2,3-b]pyridin-3-yl]pyrrolidin-2-one], the “% GABA Example” value [3] was 29%.

With `CC(=O)Nc1c(C(=O)C(C)C)oc2nc(-c3ccccc3Cl)c(-c3ccc(Cl)cc3)cc12` [Example P2, reference compound] the “% GABA Parent” value [3] was 107%.

In the case of `C[C@H](O)C(=O)Nc1c(C(=O)C(C)(C)C)oc2nc(-c3ccccc3Cl)c(-c3ccc(Cl)cc3)cc12` [Example P11, reference compound], the “% GABA Parent” value [3] was 94%.

For `CCC(=O)c1oc2nc(-c3ccc(-c4cn[nH]c4)cc3Cl)c(-c3ccc(Cl)cc3)cc2c1NC(=O)[C@H](C)O` [Example 15, (2S)-N-{5-(4-Chlorophenyl)-6-[2-chloro-4-(1H-pyrazol-4-yl)phenyl]-2-propionylfuro[2,3-b]pyridin-3-yl}-2-hydroxypropanamide], the “% GABA Example” value [3] was 13%.

`CC(C)(C)C(=O)c1oc2nc(-c3ccc(-c4cn[nH]c4)cc3Cl)c(-c3ccc(Cl)cc3)cc2c1NC(=O)C(C)(C)O` [Example 16, N-[5-(4-Chlorophenyl)-6-[2-chloro-4-(1H-pyrazol-4-yl)phenyl]-2-(2,2-dimethylpropanoyl)furo[2,3-b]pyridin-3-yl]-2-hydroxy-2-methylpropanamide] was tested, and the “% GABA Example” value [3] was 11%.

`CNC(=O)c1c(C(=O)C(C)(C)C)oc2nc(-c3ccc(-c4cc[nH]n4)cc3Cl)c(-c3ccc(Cl)cc3)cc12` [Example 29, 5-(4-Chlorophenyl)-6-[2-chloro-4-(1H-pyrazol-3-yl)phenyl]-2-(2,2-dimethylpropanoyl)-N-methylfuro[2,3-b]pyridine-3-carboxamide] was tested, and the “% GABA Example” value [3] was 20%.

For `CC(C)(O)C(=O)c1oc2nc(-c3ccccc3Cl)c(-c3ccc(Cl)cc3)cc2c1N` [Example P13, reference compound], the “% GABA Parent” value [3] was 91%.

In the case of `Cc1c(S(=O)(=O)C(C)(C)C)oc2nc(-c3ccc(-c4cc[nH]n4)cc3Cl)c(-c3ccc(Cl)cc3)cc12` [Example 24, 2-(Tert-butylsulfonyl)-5-(4-chlorophenyl)-6-[2-chloro-4-(1H-pyrazol-3-yl)phenyl]-3-methylfuro[2,3-b]pyridine], the “% GABA Example” value [3] was 13%.
